Test results: article PMC12610573, “New Chlormequat-Based Ionic Liquids as Plant Resistance Inducers” (Molecules, 2025)

What was measured:
[1] = system: radish (Raphanus sativus) sprouts; assay: Phytotoxicity test on radish sprouts; assay type: in vivo; conditions: for Reduction in Sprout Mass: compared with untreated control; for Mass of 25 Sprouts: radish, 5 days, UTC 3.09 g
Description: Twenty five seeds of radish (Raphanus sativus) were placed on a filter tissue in a Petri dish. […] Then, sprouts were weighted. All variants of treatment were tested together, with 3 replications (plates) in each of 2 cycles performed. Results were subjected to statistical analysis as described in Section 4.8.
(§1) Statistical significance of the effect of the treatments of plants with tested compounds on the phytotoxicity and SAR induction was assessed with the ANOVA test performed using the Statistica program StatSoft with software version 9.1 (StatSoft Sp. z o.o., Kraków, Poland). The statistical assumptions of normality and homogeneity of variances were verified prior to conducting the ANOVA tests. Differences between the means were estimated with Tukey’s HSD test at the significance level of p = 0.05.

[2] = system: Tobamovirus tabaci (tobacco mosaic virus, TMV) on Nicotiana tabacum cv. Xanthi; assay: SAR induction assay: necrotic area after TMV inoculation of sprayed tobacco; assay type: in vivo; conditions: for SAR Induction (percentage of necrotic area on leaves): TMV inoculation after 7 days, read 7 days later, UTC 34.54; for pest or weed control at 125 µg/mL / pest or weed control at 250 µg/mL: topical, compared with untreated control plants, read-out: Reduction in Necrotic Area; for Percentage of necrotic spot coverage (leaf shown in supplementary figure): single leaf image
Description: Plants of Nicotiana tabacum cv. Xanthi were grown under greenhouse conditions at 25 °C and 50% relative humidity, under natural daylight during the May–August growing season, with a natural photoperiod. The plants were sprayed with solutions containing the tested compounds.
In all experiments, the TMV SL-1 isolate Tobamovirus (TMV) was used. To obtain a viral inoculum, Nicotiana tabacum cv. Samsun plants were sap-inoculated with previously virus-infected plant material. After the appearance of disease symptoms on the infected plants (leaf mosaic), the virus was isolated by sucrose density gradient centrifugation with 0.01 M Tris-HCl, pH 7.0, to prepare the infectious inoculum. The concentration of virus in the obtained preparation was determined spectrophotometrically. The samples of TMV were stored at −20 °C until use.
The tested active substances at a given concentration were sprayed on tobacco plants with three fully developed leaves. The volume of working solution used was equal to 10 mL per plant. The compounds were dissolved in a water/propylene glycol solution (95/5, v/v). The plants of the untreated control variant were sprayed with a water/propylene glycol solution (95/5, v/v) that was used for the preparation of solutions of the tested compounds. After seven days, the plants were mechanically inoculated using purified viral preparations (0.01 ng/mL as described in [34]).
The plants were inoculated with the TMV inoculum at a concentration of 3.8 × 10^−4 ng per leaf. For each variant of treatment, 3 plants were sprayed, and 3 leaves of each plant were analyzed. The entire experiment was performed in 2 replicates. Necrotic areas on the leaves were determined using ImageJ software.
The surface of a leaf or an area with necrotic spots is represented by a set of pixels in the image, which are counted by the program. Reduction in necrotic area (ISAR) is expressed by the following formula:(1) ISAR=100−(At/Ac∗100) where At is the ratio of the area of necrotic spots caused by viral infection that appeared on the leaf treated with the test substance to the whole area of the leaf; Ac is the ratio of the area of the necrotic spots caused by viral infection that appeared on the leaf of the control plant to the whole area of the leaf.
as §1

Compound	Reduction in Sprout Mass ([1]; 125 mg/L) [%]	Mass of 25 Sprouts ([1]; 125 mg/L)	Reduction in Sprout Mass ([1]; 250 mg/L) [%]	Mass of 25 Sprouts ([1]; 250 mg/L)	SAR Induction (percentage of necrotic area on leaves) ([2]; 125 mg/L spray)	SAR Induction (percentage of necrotic area on leaves) ([2]; 250 mg/L spray)	pest or weed control at 125 µg/mL ([2]; 125 mg/L) [%]	pest or weed control at 250 µg/mL ([2]; 250 mg/L) [%]	Percentage of necrotic spot coverage (leaf shown in supplementary figure) ([2]; 125 mg/L) [%]	Percentage of necrotic spot coverage (leaf shown in supplementary figure) ([2]; 250 mg/L) [%]
O=C(O)c1cc(Cl)nc(Cl)c1 [2,6-dichloroisonicotinic acid]	40.29	1.85 ab B g	54.31	1.41 d A g	18.15 cd B %	14.90 f AB %	47.5	56.9	–	–
O=C(O)c1cc(Cl)cc(Cl)c1O [3,5-dichlorosalicylic acid]	32.96	2.07 bcd B g	59.49	1.25 cd A g	15.03 cd B %	7.51 bcd A %	56.5	78.3	–	–
O=C(O)c1cccc(Cl)c1O [3-chlorosalicylic acid]	47.03	1.64 a B g	72.65	0.85 a A g	4.95 a B %	2.59 a AB %	85.7	92.5	2.62	2.30
O=C(O)c1ccc(Cl)cc1O [4-chlorosalicylic acid]	46.55	1.65 a B g	68.45	0.98 ab A g	17.06 cd C %	8.68 cde AB %	50.6	74.9	–	–
O=C(O)c1cc(Cl)ccc1O [5-chlorosalicylic acid]	37.16	1.94 abc B g	59.87	1.24 cd A g	4.23 a B %	3.28 ab AB %	87.8	90.5	2.98	1.28
O=C(O)c1ccncc1 [Isonicotinic acid]	29.07	2.19 cde B g	42.83	1.77 e A g	31.12 gh B %	25.58 g A %	9.9	26	–	–
